Values belong to the compound of their own block, whether it stands above or below them.
System: K98450-129-R-PDC multicell spheroids, viability
Experiment: Anticancer human tumor K98450-129-R-PDC patient-derived colon adenocarcinoma cell line growth inhibition [PI3K]
Conditions: for IC50: curve of first compound; for viability, T/C: stronger effect = lower value
In short: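 Viability of mixed-cell spheroids was determined after exposure to pairwise combinations, one partner being inavolisib, alpelisib, duvelisib or copanlisib. Highest tested concentration matched clinical Cmax where known and 10 microM where not, descending in half-log steps.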

[1] = second compound 0.0316 µM, first compound 0.0316 µM
[2] = second compound 0.0316 µM, first compound 0.1 µM
[3] = second compound 0.1 µM, first compound 0.0316 µM
[4] = second compound 0.1 µM, first compound 0.1 µM
[5] = second compound 0.316 µM, first compound 0.0316 µM
[6] = second compound 0.316 µM, first compound 0.1 µM
[7] = second compound 1 µM, first compound 0.0316 µM
[8] = second compound 1 µM, first compound 0.1 µM
[9] = second compound 0.00316 µM, first compound 0.0316 µM
[10] = second compound 0.00316 µM, first compound 0.1 µM
[11] = second compound 0.00316 µM, first compound 0.316 µM
[12] = second compound 0.00316 µM, first compound 1 µM
[13] = second compound 0.00316 µM, first compound 3.16 µM
[14] = second compound 0.00316 µM, first compound 10 µM
[15] = second compound 0.01 µM, first compound 0.0316 µM
[16] = second compound 0.01 µM, first compound 0.1 µM
[17] = second compound 0.01 µM, first compound 0.316 µM
[18] = second compound 0.01 µM, first compound 1 µM
[19] = second compound 0.01 µM, first compound 3.16 µM
[20] = second compound 0.01 µM, first compound 10 µM
[21] = second compound 0.0316 µM, first compound 0.316 µM
[22] = second compound 0.0316 µM, first compound 1 µM
[23] = second compound 0.0316 µM, first compound 3.16 µM
[24] = second compound 0.0316 µM, first compound 10 µM
[25] = second compound 0.1 µM, first compound 0.316 µM
[26] = second compound 0.1 µM, first compound 1 µM
[27] = second compound 0.1 µM, first compound 3.16 µM
[28] = second compound 0.1 µM, first compound 10 µM
[29] = second compound 0.316 µM, first compound 0.316 µM
[30] = second compound 0.316 µM, first compound 1 µM
[31] = second compound 0.316 µM, first compound 3.16 µM
[32] = second compound 0.316 µM, first compound 10 µM
[33] = second compound 1 µM, first compound 0.316 µM
[34] = second compound 1 µM, first compound 1 µM
[35] = second compound 1 µM, first compound 3.16 µM
[36] = second compound 1 µM, first compound 10 µM
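Note: spheroids exposed to agents for seven days before read-out.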

IC50 (second compound 0.0316 µM): > 0.1 µM | IC50 (second compound 0.1 µM): > 0.1 µM | IC50 (second compound 0.316 µM): > 0.1 µM | IC50 (second compound 1 µM): > 0.1 µM | IC50 (second compound 3.16 µM): > 0.1 µM | IC50 (second compound 10 µM): > 0.1 µM
Compound: CC(C)n1nc(-c2ccc3oc(N)nc3c2)c2c(N)ncnc21 + CC(Nc1ncnc2nc[nH]c12)c1cc2cccc(Cl)c2c(=O)n1-c1ccccc1
viability, T/C (second compound 0.0316 µM, first compound 0.000316 µM): 106% | viability, T/C (second compound 0.0316 µM, first compound 0.001 µM): 91.5% | viability, T/C (second compound 0.0316 µM, first compound 0.00316 µM): 93.9% | viability, T/C (second compound 0.0316 µM, first compound 0.01 µM): 79% | viability, T/C [1]: 84.6% | viability, T/C [2]: 84.6% | viability, T/C (second compound 0.1 µM, first compound 0.000316 µM): 126% | viability, T/C (second compound 0.1 µM, first compound 0.001 µM): 96.9% | viability, T/C (second compound 0.1 µM, first compound 0.00316 µM): 106% | viability, T/C (second compound 0.1 µM, first compound 0.01 µM): 111% | viability, T/C [3]: 81.1% | viability, T/C [4]: 72.8% | viability, T/C (second compound 0.316 µM, first compound 0.000316 µM): 108% | viability, T/C (second compound 0.316 µM, first compound 0.001 µM): 134% | viability, T/C (second compound 0.316 µM, first compound 0.00316 µM): 81.3% | viability, T/C (second compound 0.316 µM, first compound 0.01 µM): 95.4% | viability, T/C [5]: 92.7% | viability, T/C [6]: 71.1% | viability, T/C (second compound 1 µM, first compound 0.000316 µM): 101% | viability, T/C (second compound 1 µM, first compound 0.001 µM): 111% | viability, T/C (second compound 1 µM, first compound 0.00316 µM): 84.3% | viability, T/C (second compound 1 µM, first compound 0.01 µM): 97.6% | viability, T/C [7]: 92.1% | viability, T/C [8]: 71.3% | viability, T/C (second compound 3.16 µM, first compound 0.000316 µM): 110% | viability, T/C (second compound 3.16 µM, first compound 0.001 µM): 97.4% | viability, T/C (second compound 3.16 µM, first compound 0.00316 µM): 103% | viability, T/C (second compound 3.16 µM, first compound 0.01 µM): 91.7% | viability, T/C (second compound 3.16 µM, first compound 0.0316 µM): 90.4% | viability, T/C (second compound 3.16 µM, first compound 0.1 µM): 67.3% | viability, T/C (second compound 10 µM, first compound 0.000316 µM): 92.6% | viability, T/C (second compound 10 µM, first compound 0.001 µM): 84.2% | viability, T/C (second compound 10 µM, first compound 0.00316 µM): 87.1% | viability, T/C (second compound 10 µM, first compound 0.01 µM): 88.5% | viability, T/C (second compound 10 µM, first compound 0.0316 µM): 87.6% | viability, T/C (second compound 10 µM, first compound 0.1 µM): 78.2%

IC50 (second compound 0.00316 µM): > 10 µM | IC50 (second compound 0.01 µM): > 10 µM | IC50 (second compound 0.0316 µM): > 10 µM | IC50 (second compound 0.1 µM): > 10 µM | IC50 (second compound 0.316 µM): > 10 µM | IC50 (second compound 1 µM): > 10 µM
Compound: CNC(=O)c1ccc(N2C(=S)N(c3ccc(C#N)c(C(F)(F)F)c3)C(=O)C2(C)C)cc1F + COc1c(OCCCN2CCOCC2)ccc2c3n(c(=NC(=O)c4cnc(N)nc4)nc12)CCN3
viability, T/C [9]: 108% | viability, T/C [10]: 102% | viability, T/C [11]: 88.7% | viability, T/C [12]: 97.1% | viability, T/C [13]: 108% | viability, T/C [14]: 101% | viability, T/C [15]: 98.6% | viability, T/C [16]: 107% | viability, T/C [17]: 80.1% | viability, T/C [18]: 77.8% | viability, T/C [19]: 100% | viability, T/C [20]: 98.8% | viability, T/C [1]: 96.4% | viability, T/C [2]: 96.9% | viability, T/C [21]: 84.4% | viability, T/C [22]: 81.5% | viability, T/C [23]: 95.7% | viability, T/C [24]: 68.1% | viability, T/C [3]: 67.1% | viability, T/C [4]: 83.2% | viability, T/C [25]: 72.6% | viability, T/C [26]: 77% | viability, T/C [27]: 78.7% | viability, T/C [28]: 70.1% | viability, T/C [5]: 67.4% | viability, T/C [6]: 65.6% | viability, T/C [29]: 73.5% | viability, T/C [30]: 58.5% | viability, T/C [31]: 79.1% | viability, T/C [32]: 39.8% | viability, T/C [7]: 43.6% | viability, T/C [8]: 58.4% | viability, T/C [33]: 54.2% | viability, T/C [34]: 50.1% | viability, T/C [35]: 57.2% | viability, T/C [36]: 65.5%

IC50 (second compound 0.00316 µM): > 10 µM | IC50 (second compound 0.01 µM): > 10 µM | IC50 (second compound 0.0316 µM): 6.6 µM | IC50 (second compound 0.1 µM): 9.23 µM | IC50 (second compound 0.316 µM): 4.72 µM | IC50 (second compound 1 µM): 0.0316 µM
Compound: CC1(C)CCC(Nc2ncc(C(F)(F)F)c(-c3c[nH]c4c(P(C)(C)=O)c(C#N)ccc34)n2)CN1 (stereo not drawn) + COc1c(OCCCN2CCOCC2)ccc2c3n(c(=NC(=O)c4cnc(N)nc4)nc12)CCN3
viability, T/C [9]: 104% | viability, T/C [10]: 99.5% | viability, T/C [11]: 66.3% | viability, T/C [12]: 60.1% | viability, T/C [13]: 60.3% | viability, T/C [14]: 52.9% | viability, T/C [15]: 113% | viability, T/C [16]: 103% | viability, T/C [17]: 67.3% | viability, T/C [18]: 61.6% | viability, T/C [19]: 67.3% | viability, T/C [20]: 48.8% | viability, T/C [1]: 94.6% | viability, T/C [2]: 77.5% | viability, T/C [21]: 68.5% | viability, T/C [22]: 69.4% | viability, T/C [23]: 61.6% | viability, T/C [24]: 42.7% | viability, T/C [3]: 79.6% | viability, T/C [4]: 86.6% | viability, T/C [25]: 63.7% | viability, T/C [26]: 69% | viability, T/C [27]: 68.7% | viability, T/C [28]: 46.1% | viability, T/C [5]: 58.3% | viability, T/C [6]: 64% | viability, T/C [29]: 59% | viability, T/C [30]: 54.7% | viability, T/C [31]: 57.8% | viability, T/C [32]: 37.3% | viability, T/C [7]: 51.6% | viability, T/C [8]: 48.9% | viability, T/C [33]: 48.8% | viability, T/C [34]: 42.7% | viability, T/C [35]: 50.7% | viability, T/C [36]: 27.2%

IC50 (second compound 0.00316 µM): > 10 µM | IC50 (second compound 0.01 µM): > 10 µM | IC50 (second compound 0.0316 µM): > 10 µM | IC50 (second compound 0.1 µM): > 10 µM | IC50 (second compound 0.316 µM): > 10 µM | IC50 (second compound 1 µM): > 10 µM
Compound: CC1(C)CCC(CN2CCN(c3ccc(C(=O)NS(=O)(=O)c4ccc(NCC5CCOCC5)c([N+](=O)[O-])c4)c(Oc4cnc5[nH]ccc5c4)c3)CC2)=C(c2ccc(Cl)cc2)C1 + COc1c(OCCCN2CCOCC2)ccc2c3n(c(=NC(=O)c4cnc(N)nc4)nc12)CCN3
viability, T/C [9]: 94.9% | viability, T/C [10]: 112% | viability, T/C [11]: 107% | viability, T/C [12]: 96.1% | viability, T/C [13]: 93.7% | viability, T/C [14]: 97.1% | viability, T/C [15]: 125% | viability, T/C [16]: 111% | viability, T/C [17]: 119% | viability, T/C [18]: 104% | viability, T/C [19]: 95.7% | viability, T/C [20]: 86% | viability, T/C [1]: 101% | viability, T/C [2]: 96.3% | viability, T/C [21]: 104% | viability, T/C [22]: 99.6% | viability, T/C [23]: 96.8% | viability, T/C [24]: 85.1% | viability, T/C [3]: 72.8% | viability, T/C [4]: 76.8% | viability, T/C [25]: 91.2% | viability, T/C [26]: 90.5% | viability, T/C [27]: 80.4% | viability, T/C [28]: 72.7% | viability, T/C [5]: 60% | viability, T/C [6]: 48% | viability, T/C [29]: 75.6% | viability, T/C [30]: 60.6% | viability, T/C [31]: 53.5% | viability, T/C [32]: 55.2% | viability, T/C [7]: 49.1% | viability, T/C [8]: 49.6% | viability, T/C [33]: 59.6% | viability, T/C [34]: 54.6% | viability, T/C [35]: 41.4% | viability, T/C [36]: 54.2%
